Source: patent US8110703B2, “Retinoid derivative and pharmaceutical composition and use thereof” (Anhui Medical University, priority 2008, dated 2012)
Several values for one entry are separate records, joined by “and”; a condition that tells them apart may be missing. Identical values can stand only once. Marks after values point to notes of the source that are not given here.

Assays:
Assay type in all cases: cell-based
A549 lung cancer cells = assay: MTT cell growth and proliferation experiment, A549; design: key to Inhibition Rate: (control OD570 − test OD570)/control OD570, as fraction
How it was run: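 Cells in DMEM/10% calf serum were treated with retinoic acid derivatives at 1, 5 and 10 ug/ml (DMSO <0.1%) for 3 d, then with MTT for 4 h at 37° C. Read-out was OD570 after DMSO solubilisation, giving % growth inhibition versus control wells. A time-course at 10 umol/L ran for 1, 2, 3 and 7 days.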

liver cancer HepG2 cells = assay: MTT cell growth and proliferation experiment, HepG2; design: key to Inhibition Rate: (control OD570 − test OD570)/control OD570, as fraction; conditions: for Inhibition Rate: fraction
How it was run: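 After treatment, 20 ul/well of MTT (5 g/L) was added for 4 h at 37° C. The medium was then removed and 20 ul/well DMSO added to dissolve the crystals. Plates were shaken 10 min and read at 570 nm. Inhibition rate was (control OD570 − experimental OD570)/control OD570 × 100%, averaged over three experiments.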

A549 cells [1] = assay: Differentiation index: CEA secretory volume of A549 cells; conditions: A549 culture supernatant, 10 ug/ml, 3 d
Procedure: 1.6 Detection of Differentiation Index The cultured A549 cells are randomly divided into 6 10 μg/ml drug groups, cell control groups, solvent control groups (DMSO and ethanol) and 10 μg/ml fenretinide control groups (11 in total). The control groups and drug groups are cultured for 3 days to collect respective 3 tubes of cell culture solutions which are centrifugated at a speed of 4000 r/min for 5 min to take the supernatant and detect the CEA content of the kit by using enzyme kinetics and CEA detection.

HepG2 cells [2] = assay: AFP secretory volume of HepG2 cells; conditions: HepG2 cells, DMSO
HepG2 cells [3] = assay: γ-GT specific activity of HepG2 cells; conditions: DMSO
A549 cells [4] = assay: Cell cycle and apoptosis by flow cytometry, A549; conditions: A549, 10 μg/ml, 3 days; for Apoptosis Rate (%) / G0-G1 (%) / G2-M (%) / S %: PI flow cytometry
Procedure: 1.4 Detection of Cell Cycle and Apoptosis by Flow Cytometry A549 cells in the logarithmic phase are collected, regulated with the concentrations thereof to 8×10^7/L, inoculated in a 6-hole board, cultured in an incubator (37° C. and 5% CO2). After the cells are adhered, the culture solution is discarded, and a culture solution having drugs with the corresponding concentrations is added and divided into 10 μg/ml drug groups, 10 μg/ml fenretinide groups, cell control groups, solvent control groups (1‰ DMSO and anhydrous ethanol) (11 in total). After 3 days, each group of cells is normally digested, collected, blown into single cell suspension, washed by cold PBS twice, and re-suspend by 10 μl PBS. Fixing and member breaking agents and a PI staining solution are added according to the Coulter DNA detection kit and reacted with one another at the room temperature and out of light for 30 min for machine detection. Each sample detects 10000 cells and repeats for three times, and the data are analyzed by Analysis software for the ratio during the G0-G1, S and G2-M periods and the ratio of apoptotic cells.

HepG2 cells [5] = assay: Cell cycle and apoptosis by flow cytometry, HepG2; conditions: HepG2, flow cytometry
[6] = A549, MTT time gradient, 10 ug/ml, 1 d
[7] = A549, MTT time gradient, 10 ug/ml, 1 d, fraction
[8] = A549, MTT time gradient, 10 ug/ml, 2 d
[9] = A549, MTT time gradient, 10 ug/ml, 2 d, fraction
[10] = A549, MTT time gradient, 10 ug/ml, 3 d
[11] = A549, MTT time gradient, 10 ug/ml, 3 d, fraction
[12] = A549, MTT time gradient, 10 ug/ml, 7 d
[13] = A549, MTT time gradient, 10 ug/ml, 7 d, fraction
[14] = HepG2, MTT OD 570 nm, 1 ug/ml, 3 d, solvent not given
[15] = HepG2, MTT OD 570 nm, 5 ug/ml, 3 d, solvent not given
[16] = HepG2, MTT OD 570 nm, 10 ug/ml, 3 d, solvent not given
[17] = HepG2, MTT time gradient, 10 ug/ml, 1 d
[18] = HepG2, MTT time gradient, 10 ug/ml, 2 d
[19] = HepG2, MTT time gradient, 10 ug/ml, 3 d
[20] = HepG2, MTT time gradient, 10 ug/ml, 7 d
[21] = HepG2, MTT, 1 ug/ml, 3 d, solvent not given
[22] = HepG2, MTT, 5 ug/ml, 3 d, solvent not given
[23] = HepG2, MTT, 10 ug/ml, 3 d, solvent not given
[24] = HepG2, Table 5 repeat MTT, 10 ug/ml, 3 days, DMSO

CC1=C(/C=C/C(C)=C/C=C/C(C)=C/C(=O)Nc2cccc(C(F)(F)F)c2)C(C)(C)CCC1 [Example 3a-02, (3-trifluoromethylphenyl)-(all-trans)-3,7-dimethyl-9-(2,6,6-trimethyl-1-cyclohexen-1-yl)-2,4,6,8-nonatetraenoic acid amide]
OD Value (x ± s) (A549 lung cancer cells; A549, MTT OD 570 nm, 1 ug/ml, 3 d, solvent DMSO (D)): 1.551 ± 0.083 and 1.517 ± 0.100
OD Value (x ± s) (A549 lung cancer cells; A549, MTT OD 570 nm, 5 ug/ml, 3 d, solvent DMSO (D)): 1.510 ± 0.193 and 1.357 ± 0.159
OD Value (x ± s) (A549 lung cancer cells; A549, MTT OD 570 nm, 10 ug/ml, 3 d, solvent DMSO (D)): 1.296 ± 0.192 and 0.939 ± 0.040
OD Value (x ± s) (A549 lung cancer cells; [6]): 0.617 ± 0.072
Inhibition Rate (A549 lung cancer cells; [7]): 0.327
OD Value (x ± s) (A549 lung cancer cells; [8]): 0.703 ± 0.025
Inhibition Rate (A549 lung cancer cells; [9]): 0.519
OD Value (x ± s) (A549 lung cancer cells; [10]): 0.229 ± 0.010
Inhibition Rate (A549 lung cancer cells; [11]): 0.753
OD Value (x ± s) (A549 lung cancer cells; [12]): 0.106 ± 0.035
Inhibition Rate (A549 lung cancer cells; [13]): 0.949
Inhibition Rate (A549 lung cancer cells; A549, MTT, 1 ug/ml, 3 d, solvent DMSO (D), given as fraction): 0.169 and 0.187
Inhibition Rate (A549 lung cancer cells; A549, MTT, 5 ug/ml, 3 d, solvent DMSO (D), given as fraction): 0.191 and 0.273
Inhibition Rate (A549 lung cancer cells; A549, MTT, 10 ug/ml, 3 d, solvent DMSO (D), given as fraction): 0.305 and 0.497
OD Value (x ± s) (liver cancer HepG2 cells; [14]): 1.19 ± 0.50
OD Value (x ± s) (liver cancer HepG2 cells; [15]): 0.92 ± 0.27
OD Value (x ± s) (liver cancer HepG2 cells; [16]): 0.94 ± 0.41
OD Value (x ± s) (liver cancer HepG2 cells; [17]): 1.43 ± 0.07
Inhibition Rate (liver cancer HepG2 cells; [17]): 0.17
OD Value (x ± s) (liver cancer HepG2 cells; [18]): 0.81 ± 0.12
Inhibition Rate (liver cancer HepG2 cells; [18]): 0.52
OD Value (x ± s) (liver cancer HepG2 cells; [19]): 0.55 ± 0.03
Inhibition Rate (liver cancer HepG2 cells; [19]): 0.55
OD Value (x ± s) (liver cancer HepG2 cells; [20]): 0.32 ± 0.12
Inhibition Rate (liver cancer HepG2 cells; [20]): 0.76
Inhibition Rate (liver cancer HepG2 cells; [21]): 0.30
Inhibition Rate (liver cancer HepG2 cells; [22]): 0.45
Inhibition Rate (liver cancer HepG2 cells; [23]): 0.45
OD Value (x ± s) (liver cancer HepG2 cells; [24]): 1.331 ± 0.067
Inhibition Rate (liver cancer HepG2 cells; [24]): 0.385*
CEA (A549 cells [1]; DMSO): 2.8 µg/L
AFP (HepG2 cells [2]): 15.6 µg/L
γ-GT (HepG2 cells [3]): 35.6 ± 1.0 U/L
effect on the apoptosis of A549 cells (ranking in words) (A549 cells [4]): most greatly effects on the apoptosis of A549 cells
Apoptosis Rate (%) (A549 cells [4]): 40.9%
G0-G1 (%) (A549 cells [4]): 35.1%
G2-M (%) (A549 cells [4]): 1.62%
S % (A549 cells [4]): 23.6%
Apoptosis Rate (%) (HepG2 cells [5]): 30.2* %
G0-G1 (%) (HepG2 cells [5]): 40.3%
G2-M (%) (HepG2 cells [5]): 2.71%
S % (HepG2 cells [5]): 27.9%

CC1=C(/C=C/C(C)=C/C=C/C(C)=C/C(=O)Oc2ccccc2C(F)(F)F)C(C)(C)CCC1 [Example 2a-03, (2-trifluoromethylphenyl)-(all-trans)-3,7-dimethyl-9-(2,6,6-trimethyl-1-cyclohexen-1-yl)-2,4,6,8-nonatetraenoate]
OD Value (x ± s) (A549 lung cancer cells; A549, MTT OD 570 nm, 1 ug/ml, 3 d, solvent ethanol): 1.639 ± 0.115
OD Value (x ± s) (A549 lung cancer cells; A549, MTT OD 570 nm, 5 ug/ml, 3 d, solvent ethanol): 1.555 ± 0.162
OD Value (x ± s) (A549 lung cancer cells; A549, MTT OD 570 nm, 10 ug/ml, 3 d, solvent ethanol): 1.382 ± 0.133
OD Value (x ± s) (A549 lung cancer cells; [6]): 0.902 ± 0.055
Inhibition Rate (A549 lung cancer cells; [7]): 0.016
OD Value (x ± s) (A549 lung cancer cells; [8]): 1.066 ± 0.015
Inhibition Rate (A549 lung cancer cells; [9]): 0.271
OD Value (x ± s) (A549 lung cancer cells; [10]): 0.635 ± 0.033
Inhibition Rate (A549 lung cancer cells; [11]): 0.315
OD Value (x ± s) (A549 lung cancer cells; [12]): 1.393 ± 0.043
Inhibition Rate (A549 lung cancer cells; [13]): 0.328
Inhibition Rate (A549 lung cancer cells; A549, MTT, 1 ug/ml, 3 d, solvent ethanol, given as fraction): 0.122
Inhibition Rate (A549 lung cancer cells; A549, MTT, 5 ug/ml, 3 d, solvent ethanol, given as fraction): 0.167
Inhibition Rate (A549 lung cancer cells; A549, MTT, 10 ug/ml, 3 d, solvent ethanol, given as fraction): 0.260
OD Value (x ± s) (liver cancer HepG2 cells; [14]): 1.32 ± 0.50
OD Value (x ± s) (liver cancer HepG2 cells; [15]): 1.32 ± 0.56
OD Value (x ± s) (liver cancer HepG2 cells; [16]): 0.98 ± 0.19
OD Value (x ± s) (liver cancer HepG2 cells; [17]): 1.61 ± 0.14
Inhibition Rate (liver cancer HepG2 cells; [17]): 0.07
OD Value (x ± s) (liver cancer HepG2 cells; [18]): 1.55 ± 0.09
Inhibition Rate (liver cancer HepG2 cells; [18]): 0.08
OD Value (x ± s) (liver cancer HepG2 cells; [19]): 1.24 ± 0.09
Inhibition Rate (liver cancer HepG2 cells; [19]): 0.09
OD Value (x ± s) (liver cancer HepG2 cells; [20]): 0.79 ± 0.08
Inhibition Rate (liver cancer HepG2 cells; [20]): 0.36
Inhibition Rate (liver cancer HepG2 cells; [21]): 0.22
Inhibition Rate (liver cancer HepG2 cells; [22]): 0.23
Inhibition Rate (liver cancer HepG2 cells; [23]): 0.42
OD Value (x ± s) (liver cancer HepG2 cells; [24]): 1.847 ± 0.091
Inhibition Rate (liver cancer HepG2 cells; [24]): 0.468*
CEA (A549 cells [1]; ethanol): 3.9 µg/L
AFP (HepG2 cells [2]): 14.7 µg/L
γ-GT (HepG2 cells [3]): 60.6 ± 0.5 U/L
Apoptosis Rate (%) (A549 cells [4]): 28.9%
G0-G1 (%) (A549 cells [4]): 45.7%
G2-M (%) (A549 cells [4]): 1.01%
S % (A549 cells [4]): 25.8%
Apoptosis Rate (%) (HepG2 cells [5]): 16.3* %
G0-G1 (%) (HepG2 cells [5]): 57.3%
G2-M (%) (HepG2 cells [5]): 3.40%
S % (HepG2 cells [5]): 25.5%
